What was measured:
Conditions in all cases: male, Sprague-Dawley, rat, in vivo
P450 ISF/B-NF = test system: P450 ISF/B-NF
Description: (§1) Animals were monitored daily for physical condition and body weight, and blood samples were assayed for serum alanine transferase (ALT) and aspartate aminotransferase (AST) levels using a diagnostic kit (Sigma Aldrich). Three animals per group were sacrificed approximately 12 hours (h), 24 h, 72 h, 168 h, 336 h and 672 h following the last dose administered. Observed gross pathology and liver weights were recorded at time of necropsy. Liver, kidney, brain, spleen and pancreas from each rat were harvested, flash frozen in liquid nitrogen, and stored at −80° C.
(§2) Frozen liver was homogenized and lysed in TRIZOL reagent (Cat. #10296-028; Life Technologies) following the modifications for liver RNA isolation. Poly(A+) RNA was isolated using an OLIGOTEX kit (Qiagen, Carlsbad, Calif.) and labeled with either Cy3 or Cy5-labeled primers (Operon Technologies, Alameda, Calif.) using the GEMBRIGHT labeling kit (Incyte Genomics). MRNA isolated from tissues of rats dosed with PB was labeled with Cy5 and mRNA isolated from tissues of rats dosed with DMSO was labeled with Cy3. Quantitative and differential expression pattern control cDNAs were added to each labeling reaction. Labeled cDNA was treated with 0.5 M sodium bicarbonate (pH9.2) for 20 min at 85° C. to degrade the RNA and purified using two successive CHROMA SPIN 30 gel filtration spin columns (Clontech, Palo Alto, Calif.). Cy3 labeled control sample and Cy5 labeled experimental sample were combined and precipitated in glycogen, sodium acetate, and ethanol.
(§3) Hybridization reactions contained 9 microliters of probe mixture consisting of 0.2 micrograms each of both Cy3 and Cy5 labeled cDNA synthesis products in 5×SSC, 0.2% SDS hybridization buffer. The probe mixture was heated to 65° C. for 5 min and was aliquoted onto the microarray surface and covered with an 1.8 cm^2 coverslip. The arrays were transferred to a waterproof chamber having a cavity just slightly larger than a microscope slide. The chamber was kept at 100% humidity internally by the addition of 140 microliters of 5×SSC in a corner of the chamber. The chamber containing the arrays was incubated for about 6.5 hours at 60° C. The arrays were washed for 10 min at 45° C. in low stringency wash buffer (1×SSC, 0.1% SDS), three times for 10 min each at 45 ° C. in high stringency wash buffer (0.1×SSC), and then dried.
(§4) The microscope used to detect the reporter-labeled hybridization complexes was outfitted with an Innova 70 mixed gas 10 W laser (Coherent Lasers, Santa Clara, Calif.) capable of generating spectral lines at 488 nm for excitation of Cy3, and 632 nm for excitation of Cy5. The excitation laser light was focused on the array using a 20X microscope objective (Nikon). […]

P450 LA-omega = test system: P450 LA-omega
Description: as §1, §2, §3, §4

P450 MCA-inducible = test system: P450 MCA-inducible
Description: as §1, §2, §3, §4

SEQ ID NOs: 1-47 = test system: SEQ ID NOs: 1-47
Description: as §1, §2, §3, §4

`c1ccc2c(c1)cc1ccc3cccc4ccc2c1c34` [benzo(a)pyrene] was tested, and the “P450 ISF/B-NF upregulated at least once during the time course” value (P450 ISF/B-NF) was “greater than 3 fold”, the “P450 LA-omega upregulated at least once during the time course” value (P450 LA-omega) was “greater than 3 fold” and the “P450 MCA-inducible upregulated at least once during the time course” value (P450 MCA-inducible) was “greater than 3 fold”. The “SEQ ID NOs: 1-47 up-regulated or downregulated at least once during the time course” value (SEQ ID NOs: 1-47) was “at least 3 fold”.

Reference: patent US6403778B1, “Toxicological response markers” (Incyte Genomics, Inc., priority 1998, dated 2002)
